Reference: patent publication US12655116B2, “Substituted isophthalic acid diamides” (Bayer Aktiengesellschaft, priority 2020, dated 2026)

Experiments:
PHBPU [1] = test: Pre-emergence herbicidal action against PHBPU; assay type: in vivo, Pharbitis purpurea; conditions: dosage 80 g/ha
Outline: (§1)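 Sandy loam pots, seeds covered with soil, then surface-treated with WP or EC formulations at 600–800 l/ha water plus 0.2% wetting agent. Greenhouse, 3 weeks. Percent damage vs untreated controls.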

SETVI = test: Post-emergence herbicidal action against SETVI; assay type: in vivo, Setaria viridis; conditions: dosage 20 g/ha
Outline: (§2)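 Herbicidal action is a visual percentage rating (0% = as untreated control, 100% = plants dead) made roughly 3 weeks after treatment. Plants were grown in sandy loam in the greenhouse and treated at the one-leaf stage, 2 to 3 weeks post-sowing. Treatment was a foliar spray of wettable-powder or emulsion-concentrate formulations at 600 to 800 l/ha water plus 0.2% wetting agent.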

ALOMY = test: Pre-emergence herbicidal action against ALOMY; assay type: in vivo, Alopecurus myosuroides; conditions: 80 g/ha, pre-emergence, scored visually after 3 weeks vs untreated controls (100% = plants have died, 0% = like control plants)
Outline: as §1

STEME [2] = test: Pre-emergence herbicidal action against STEME; assay type: in vivo, Stellaria media
Outline: as §1

MATIN [3] = test: Post-emergence herbicidal action against MATIN; assay type: in vivo, Matricaria inodora
Outline: as §2

STEME [4] = test: Post-emergence herbicidal action against STEME; assay type: in vivo, Stellaria media; conditions: 20 g/ha
Procedure: Seeds of monocotyledonous and dicotyledonous weed and crop plants are laid out in sandy loam soil in wood-fiber pots, covered with soil and cultivated in a greenhouse under good growth conditions. 2 to 3 weeks after sowing, the test plants are treated at the one-leaf stage. The compounds of the invention, formulated in the form of wettable powders (WP) or as emulsion concentrates (EC), are then sprayed onto the green parts of the plants in the form of an aqueous suspension or emulsion at a water application rate equivalent to 600 to 800 l/ha, with addition of 0.2% wetting agent. After the test plants have been left to stand in the greenhouse under optimal growth conditions for about 3 weeks, the action of the preparations is assessed visually in comparison to untreated controls (herbicidal action in percent (%): 100% activity=the plants have died, 0% activity=like control plants). […] The tables below illustrate, in an illustrative manner, the post-emergence herbicidal action of the compounds of the invention, the herbicidal activity being stated in percent.

ABUTH [5] = test: Post-emergence herbicidal action against ABUTH; assay type: in vivo, Abutilon theophrasti; conditions: visual assessment about 3 weeks after treatment vs untreated controls
Outline: as §2

VIOTR [6] = test: Pre-emergence herbicidal action against VIOTR; assay type: in vivo, Viola tricolor
Outline: as §1

AMARE [7] = test: Pre-emergence herbicidal action against AMARE; assay type: in vivo, Amaranthus retroflexus
Outline: as §1

AVEFA [8] = test: Pre-emergence herbicidal action against AVEFA; assay type: in vivo, Avena fatua; conditions: 80 g/ha, pre-emergence
Outline: as §1

DIGSA [9] = test: Post-emergence herbicidal action against DIGSA; assay type: in vivo, Digitaria sanguinalis; conditions: for Post-emergence action against DIGSA: 20 g/ha
Outline: as §2

AVEFA [10] = test: Post-emergence herbicidal action against AVEFA; assay type: in vivo, Avena fatua; conditions: 20 g/ha, visual assessment about 3 weeks after treatment, 100% = plants have died, 0% = like control plants
Outline: as §2

MATIN [11] = test: Pre-emergence herbicidal action against MATIN; assay type: in vivo, Matricaria inodora
Outline: as §1

PHBPU [12] = test: Post-emergence herbicidal action against PHBPU; assay type: in vivo, Pharbitis purpurea
Outline: as §2

VERPE = test: Pre-emergence herbicidal action against VERPE; assay type: in vivo, Veronica persica; conditions: dosage 80 g/ha
Outline: as §1

VIOTR [13] = test: Post-emergence herbicidal action against VIOTR; assay type: in vivo, Viola tricolor
Outline: as §2

ABUTH [14] = test: Pre-emergence herbicidal action against ABUTH; assay type: in vivo, Abutilon theophrasti; conditions: for Pre-emergence action against ABUTH (herbicidal activity): 80 g/ha, scored visually after 3 weeks vs untreated controls (100% = plants have died, 0% = like control plants)
Outline: as §1

DIGSA [15] = test: Pre-emergence herbicidal action against DIGSA; assay type: in vivo, Digitaria sanguinalis
Outline: as §1

POLCO = test: Pre-emergence herbicidal action against POLCO; assay type: in vivo, Polygonum convolvulus; conditions: dosage 80 g/ha
Outline: as §1

AMARE [16] = test: Post-emergence herbicidal action against AMARE; assay type: in vivo, Amaranthus retroflexus; conditions: 20 g/ha, visual assessment about 3 weeks after treatment, 100% = plants have died, 0% = like control plants
Outline: as §2

ECHCG = test: Pre-emergence herbicidal action against ECHCG; assay type: in vivo, Echinochloa crus-galli; conditions: 80 g/ha
Outline: as §1

[17] = 20 g/ha, scored visually after 3 weeks vs untreated controls, 100% = plants have died, 0% = like control plants
[18] = 80 g/ha, scored visually after 3 weeks vs untreated controls (100% = plants have died, 0% = like control plants)

**Q.** How did the “Pre-emergence action against PHBPU in %” value (PHBPU [1]) turn out when `CCCn1nnnc1NC(=O)c1ccc(C(F)(F)F)c(C(=O)NC2CC2)c1C` [Example 3-27] was run?
**A.** 90%

**Q.** What about the “Post-emergence action against SETVI in %” value (SETVI) of the same molecule?
**A.** 90%

**Q.** And the “Pre-emergence action against ALOMY (herbicidal activity)” value (ALOMY)?
**A.** 90%

**Q.** And the “Pre-emergence action against STEME in %” value (STEME [2]; dosage 20 g/ha)?
**A.** 100%

**Q.** What about the “Pre-emergence action against STEME in %” value (STEME [2]; dosage 80 g/ha) of the same molecule?
**A.** 100%

**Q.** What about the “Post-emergence action against MATIN in %” value (MATIN [3]; dosage 5 g/ha) of the same molecule?
**A.** 90%

**Q.** What about the “Post-emergence action against MATIN in %” value (MATIN [3]; dosage 20 g/ha) of the same molecule?
**A.** 100%

**Q.** And the “Post-emergence action against STEME in %” value (STEME [4])?
**A.** 80%

**Q.** And the “Post-emergence action against ABUTH in %” value (ABUTH [5]; dosage 20 g/ha)?
**A.** 100%

**Q.** What about the “Pre-emergence action against VIOTR in %” value (VIOTR [6]; dosage 20 g/ha) of the same molecule?
**A.** 90%

**Q.** And the “Pre-emergence action against VIOTR in %” value (VIOTR [6]; dosage 80 g/ha)?
**A.** 100%

**Q.** And the “Pre-emergence action against AMARE in %” value (AMARE [7]; [17])?
**A.** 100%

**Q.** And the “Pre-emergence action against AMARE in %” value (AMARE [7]; [18])?
**A.** 100%

**Q.** And the “Pre-emergence action against AVEFA in %” value (AVEFA [8])?
**A.** 90%

**Q.** What about the “Post-emergence action against DIGSA” value (DIGSA [9]) of the same molecule?
**A.** 100%

**Q.** What about the “Post-emergence action at 20 g/ha against AVEFA in %” value (AVEFA [10]) of the same molecule?
**A.** 90%

**Q.** And the “Pre-emergence action against MATIN in %” value (MATIN [11]; dosage 20 g/ha)?
**A.** 100%

**Q.** And the “Pre-emergence action against MATIN in %” value (MATIN [11]; dosage 80 g/ha)?
**A.** 100%

**Q.** What about the “Post-emergence action against PHBPU in %” value (PHBPU [12]; dosage 5 g/ha) of the same molecule?
**A.** 90%

**Q.** And the “Post-emergence action against PHBPU in %” value (PHBPU [12]; dosage 20 g/ha)?
**A.** 100%

**Q.** And the “Pre-emergence action against VERPE in %” value (VERPE)?
**A.** 90%

**Q.** And the “Post-emergence action against VIOTR in %” value (VIOTR [13]; 5 g/ha)?
**A.** 80%

**Q.** What about the “Post-emergence action against VIOTR in %” value (VIOTR [13]; 20 g/ha) of the same molecule?
**A.** 100%

**Q.** And the “Pre-emergence action against ABUTH (herbicidal activity)” value (ABUTH [14])?
**A.** 100%

**Q.** And the “Pre-emergence action against ABUTH (herbicidal activity in percent)” value (ABUTH [14]; dosage 20 g/ha, scored visually after 3 weeks vs untreated controls, 100% = plants have died, 0% = like control plants)?
**A.** 100%

**Q.** And the “Pre-emergence action against DIGSA in %” value (DIGSA [15]; dosage 80 g/ha)?
**A.** 100%

**Q.** How did the “Post-emergence action against SETVI in %” value (SETVI) turn out when `CCNC(=O)c1c(C(F)F)ccc(C(=O)Nc2nnc(C)o2)c1C` [Example 6-32] was run?
**A.** 80%

**Q.** And the “Pre-emergence action against POLCO in %” value (POLCO)?
**A.** 80%

**Q.** And the “Post-emergence action at 20 g/ha against AMARE in %” value (AMARE [16])?
**A.** 100%

**Q.** And the “Pre-emergence action against STEME in %” value (STEME [2]; dosage 80 g/ha)?
**A.** 90%

**Q.** And the “Post-emergence action against STEME in %” value (STEME [4])?
**A.** 80%

**Q.** And the “Post-emergence action against ABUTH in %” value (ABUTH [5]; dosage 5 g/ha)?
**A.** 80%

**Q.** And the “Post-emergence action against ABUTH in %” value (ABUTH [5]; dosage 20 g/ha)?
**A.** 80%

**Q.** And the “Pre-emergence action against AMARE in %” value (AMARE [7]; [17])?
**A.** 80%

**Q.** What about the “Pre-emergence action against AMARE in %” value (AMARE [7]; [18]) of the same molecule?
**A.** 100%

**Q.** And the “Post-emergence action against DIGSA in %” value (DIGSA [9]; 5 g/ha)?
**A.** 80%

**Q.** And the “Post-emergence action against DIGSA” value (DIGSA [9])?
**A.** 80%

**Q.** What about the “Pre-emergence action against MATIN in %” value (MATIN [11]; dosage 80 g/ha) of the same molecule?
**A.** 90%

**Q.** And the “Pre-emergence action against ABUTH (herbicidal activity)” value (ABUTH [14])?
**A.** 80%

**Q.** And the “Pre-emergence action against ECHCG in %” value (ECHCG)?
**A.** 90%

**Q.** What about the “Pre-emergence action against DIGSA in %” value (DIGSA [15]; dosage 20 g/ha) of the same molecule?
**A.** 90%

**Q.** What about the “Pre-emergence action against DIGSA in %” value (DIGSA [15]; dosage 80 g/ha) of the same molecule?
**A.** 100%
